# Assay results: publication PMC9986241 (Signal Transduction and Targeted Therapy, 2023)
# How the values were obtained:
# Assay in all cases: KinaseProfiler enzyme profiling
# Format in all cases: biochemical
# LKB1(h) = biological target: T1, LKB1(h) (Homo sapiens, UniProt Q15831)
# T1 construct: purchased Eurofins KinaseProfiler
# Method: (§1) Enzyme profiling services were provided by KinaseProfiler™ (Eurofin, Brussels, Belgium). The concentration of erianin was 100 nM, and total 70 kinases were tested in this in vitro screening and profiling services (2 repetitions). For more details, refer to the manufacturer’s instructions (www.eurofinsdiscoveryservices.com).
# CDK7/cyclinH(h) = biological target: T2, CDK7/cyclinH(h) (Homo sapiens, UniProt P50613)
# T2 construct: purchased Eurofins KinaseProfiler
# Method: as §1
# CK1γ1(h) = biological target: T3, CK1γ1(h) (Homo sapiens, UniProt Q9HCP0)
# T3 construct: purchased Eurofins KinaseProfiler
# Method: as §1
# FGFR2(h) = biological target: T4, FGFR2(h) (Homo sapiens, UniProt P21802)
# T4 construct: purchased Eurofins KinaseProfiler
# Method: as §1
# Flt4(h) = biological target: T5, Flt4(h) (Homo sapiens, UniProt P35916)
# T5 construct: purchased Eurofins KinaseProfiler
# Method: as §1
# ARK5(h) = biological target: T6, ARK5(h) (Homo sapiens, UniProt O60285)
# T6 construct: purchased Eurofins KinaseProfiler
# Method: as §1
# EGFR(L858R)(h) = biological target: T7, EGFR(L858R)(h) (Homo sapiens, UniProt P00533, L858R)
# T7 construct: purchased Eurofins KinaseProfiler
# Method: as §1
# MKK4(m) = biological target: T8, MKK4(m) (Mus musculus, UniProt P47809)
# T8 construct: purchased Eurofins KinaseProfiler
# Method: as §1
# CK1γ3(h) = biological target: T9, CK1γ3(h) (Homo sapiens, UniProt Q9Y6M4)
# T9 construct: purchased Eurofins KinaseProfiler
# Method: as §1
# CSK(h) = biological target: T10, CSK(h) (Homo sapiens, UniProt P41240)
# T10 construct: purchased Eurofins KinaseProfiler
# Method: as §1
# DCAMKL3(h) = biological target: T11, DCAMKL3(h) (Homo sapiens, UniProt Q9C098)
# T11 construct: purchased Eurofins KinaseProfiler
# Method: as §1
# FGFR4(h) = biological target: T12, FGFR4(h) (Homo sapiens, UniProt P22455)
# T12 construct: purchased Eurofins KinaseProfiler
# Method: as §1
# CK1γ2(h) = biological target: T13, CK1γ2(h) (Homo sapiens, UniProt P78368)
# T13 construct: purchased Eurofins KinaseProfiler
# Method: as §1
# DDR2(h) = biological target: T14, DDR2(h) (Homo sapiens, UniProt Q16832)
# T14 construct: purchased Eurofins KinaseProfiler
# Method: as §1
# Rsk3(h) = biological target: T15, Rsk3(h) (Homo sapiens, UniProt Q15349); conditions: 100 nM
# T15 construct: purchased Eurofins KinaseProfiler
# Method: as §1
# CaMKIIδ(h) = biological target: T16, CaMKIIδ(h) (Homo sapiens, UniProt Q13557); conditions: 100 nM
# T16 construct: purchased Eurofins KinaseProfiler
# Method: as §1
# EphA1(h) = biological target: T17, EphA1(h) (Homo sapiens, UniProt P21709); conditions: 100 nM
# T17 construct: purchased Eurofins KinaseProfiler
# Method: as §1
# CDK5/p25(h) = biological target: T18, CDK5/p25(h) (Homo sapiens, UniProt Q00535); conditions: 100 nM
# T18 construct: purchased Eurofins KinaseProfiler
# Method: as §1
# ZIPK(h) = biological target: T19, ZIPK(h) (Homo sapiens, UniProt O43293); conditions: 100 nM
# T19 construct: purchased Eurofins KinaseProfiler
# Method: as §1
# EphA4(h) = biological target: T20, EphA4(h) (Homo sapiens, UniProt P54764); conditions: 100 nM
# T20 construct: purchased Eurofins KinaseProfiler
# Method: as §1
# Fgr(h) = biological target: T21, Fgr(h) (Homo sapiens, UniProt P09769); conditions: 100 nM
# T21 construct: purchased Eurofins KinaseProfiler
# Method: as §1
# Wee1(h) = biological target: T22, Wee1(h) (Homo sapiens, UniProt P30291); conditions: 100 nM
# T22 construct: purchased Eurofins KinaseProfiler
# Method: as §1
# BTK(h) = biological target: T23, BTK(h) (Homo sapiens, UniProt Q06187); conditions: 100 nM
# T23 construct: purchased Eurofins KinaseProfiler
# Method: as §1
# Rsk1(h) = biological target: T24, Rsk1(h) (Homo sapiens, UniProt Q15418)
# T24 construct: purchased Eurofins KinaseProfiler
# Method: as §1
# Ros(h) = biological target: T25, Ros(h) (Homo sapiens, UniProt P08922); conditions: 100 nM
# T25 construct: purchased Eurofins KinaseProfiler
# Method: as §1
# KDR(h) = biological target: T26, KDR(h) (Homo sapiens, UniProt P35968); conditions: 100 nM
# T26 construct: purchased Eurofins KinaseProfiler
# Method: as §1
# MEK2(h) = biological target: T27, MEK2(h) (Homo sapiens, UniProt P36507)
# T27 construct: purchased Eurofins KinaseProfiler
# Method: as §1
# eEF-2K(h) = biological target: T28, eEF-2K(h) (Homo sapiens, UniProt O00418); conditions: 100 nM
# T28 construct: purchased Eurofins KinaseProfiler
# Method: as §1
# Rsk2(h) = biological target: T29, Rsk2(h) (Homo sapiens, UniProt P51812)
# T29 construct: purchased Eurofins KinaseProfiler
# Method: as §1
# TYK2(h) = biological target: T30, TYK2(h) (Homo sapiens, UniProt P29597); conditions: 100 nM
# T30 construct: purchased Eurofins KinaseProfiler
# Method: as §1
# PAK5(h) = biological target: T31, PAK5(h) (Homo sapiens, UniProt Q9P286)
# T31 construct: purchased Eurofins KinaseProfiler
# Method: as §1
# MAPKAP-K2(h) = biological target: T32, MAPKAP-K2(h) (Homo sapiens, UniProt P49137)
# T32 construct: purchased Eurofins KinaseProfiler
# Method: as §1
# NEK3(h) = biological target: T33, NEK3(h) (Homo sapiens, UniProt P51956)
# T33 construct: purchased Eurofins KinaseProfiler
# Method: as §1
# MST2(h) = biological target: T34, MST2(h) (Homo sapiens, UniProt Q13188)
# T34 construct: purchased Eurofins KinaseProfiler
# Method: as §1
# PAK6(h) = biological target: T35, PAK6(h) (Homo sapiens, UniProt Q9NQU5)
# T35 construct: purchased Eurofins KinaseProfiler
# Method: as §1
# NEK1(h) = biological target: T36, NEK1(h) (Homo sapiens, UniProt Q96PY6)
# T36 construct: purchased Eurofins KinaseProfiler
# Method: as §1
# DMPK(h) = biological target: T37, DMPK(h) (Homo sapiens, UniProt Q09013)
# T37 construct: purchased Eurofins KinaseProfiler
# Method: as §1
# STK25(h) = biological target: T38, STK25(h) (Homo sapiens, UniProt O00506)
# T38 construct: purchased Eurofins KinaseProfiler
# Method: as §1
# ATR/ATRIP(h) = biological target: T39, ATR/ATRIP(h) (Homo sapiens, UniProt Q13535)
# T39 construct: purchased Eurofins KinaseProfiler
# Method: as §1
# TAO1(h) = biological target: T40, TAO1(h) (Homo sapiens, UniProt Q7L7X3)
# T40 construct: purchased Eurofins KinaseProfiler
# Method: as §1
# NEK7(h) = biological target: T41, NEK7(h) (Homo sapiens, UniProt Q8TDX7)
# T41 construct: purchased Eurofins KinaseProfiler
# Method: as §1
# CDK18/cyclinY(h) = biological target: T42, CDK18/cyclinY(h) (Homo sapiens, UniProt Q07002)
# T42 construct: purchased Eurofins KinaseProfiler
# Method: as §1
# T5 sequence (P35916 25-1363): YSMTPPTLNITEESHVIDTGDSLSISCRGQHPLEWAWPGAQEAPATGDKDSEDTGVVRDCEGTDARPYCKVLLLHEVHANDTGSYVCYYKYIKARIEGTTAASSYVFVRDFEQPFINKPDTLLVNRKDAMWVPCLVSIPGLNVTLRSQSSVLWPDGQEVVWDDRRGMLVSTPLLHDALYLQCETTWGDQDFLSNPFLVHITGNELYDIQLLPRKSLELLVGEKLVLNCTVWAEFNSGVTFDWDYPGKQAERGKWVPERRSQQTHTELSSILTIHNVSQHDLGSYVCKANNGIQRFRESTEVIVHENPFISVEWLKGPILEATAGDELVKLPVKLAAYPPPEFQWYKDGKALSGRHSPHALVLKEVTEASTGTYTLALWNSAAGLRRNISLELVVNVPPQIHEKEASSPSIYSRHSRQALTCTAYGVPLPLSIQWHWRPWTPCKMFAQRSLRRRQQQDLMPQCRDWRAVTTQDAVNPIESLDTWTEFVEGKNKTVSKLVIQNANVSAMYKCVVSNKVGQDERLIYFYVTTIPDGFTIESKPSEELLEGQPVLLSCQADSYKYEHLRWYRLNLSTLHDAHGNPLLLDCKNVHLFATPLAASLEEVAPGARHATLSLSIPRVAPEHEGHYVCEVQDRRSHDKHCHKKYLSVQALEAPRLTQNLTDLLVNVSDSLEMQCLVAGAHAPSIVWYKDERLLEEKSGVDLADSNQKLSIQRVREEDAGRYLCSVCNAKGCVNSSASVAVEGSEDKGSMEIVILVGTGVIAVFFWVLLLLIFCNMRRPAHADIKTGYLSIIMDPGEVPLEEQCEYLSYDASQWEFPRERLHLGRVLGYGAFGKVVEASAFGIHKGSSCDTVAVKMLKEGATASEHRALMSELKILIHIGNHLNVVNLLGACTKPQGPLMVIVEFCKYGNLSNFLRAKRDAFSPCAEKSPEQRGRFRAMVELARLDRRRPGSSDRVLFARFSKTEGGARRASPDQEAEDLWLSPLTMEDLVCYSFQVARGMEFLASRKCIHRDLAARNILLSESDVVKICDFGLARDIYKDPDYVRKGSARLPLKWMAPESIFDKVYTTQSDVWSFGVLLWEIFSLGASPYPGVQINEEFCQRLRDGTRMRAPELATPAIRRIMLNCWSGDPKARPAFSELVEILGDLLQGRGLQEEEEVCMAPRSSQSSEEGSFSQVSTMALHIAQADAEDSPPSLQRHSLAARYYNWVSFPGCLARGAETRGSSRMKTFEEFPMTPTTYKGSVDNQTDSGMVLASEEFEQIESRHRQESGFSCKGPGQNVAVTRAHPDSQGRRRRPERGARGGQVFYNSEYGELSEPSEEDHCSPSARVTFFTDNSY
# T28 sequence (O00418 whole entry): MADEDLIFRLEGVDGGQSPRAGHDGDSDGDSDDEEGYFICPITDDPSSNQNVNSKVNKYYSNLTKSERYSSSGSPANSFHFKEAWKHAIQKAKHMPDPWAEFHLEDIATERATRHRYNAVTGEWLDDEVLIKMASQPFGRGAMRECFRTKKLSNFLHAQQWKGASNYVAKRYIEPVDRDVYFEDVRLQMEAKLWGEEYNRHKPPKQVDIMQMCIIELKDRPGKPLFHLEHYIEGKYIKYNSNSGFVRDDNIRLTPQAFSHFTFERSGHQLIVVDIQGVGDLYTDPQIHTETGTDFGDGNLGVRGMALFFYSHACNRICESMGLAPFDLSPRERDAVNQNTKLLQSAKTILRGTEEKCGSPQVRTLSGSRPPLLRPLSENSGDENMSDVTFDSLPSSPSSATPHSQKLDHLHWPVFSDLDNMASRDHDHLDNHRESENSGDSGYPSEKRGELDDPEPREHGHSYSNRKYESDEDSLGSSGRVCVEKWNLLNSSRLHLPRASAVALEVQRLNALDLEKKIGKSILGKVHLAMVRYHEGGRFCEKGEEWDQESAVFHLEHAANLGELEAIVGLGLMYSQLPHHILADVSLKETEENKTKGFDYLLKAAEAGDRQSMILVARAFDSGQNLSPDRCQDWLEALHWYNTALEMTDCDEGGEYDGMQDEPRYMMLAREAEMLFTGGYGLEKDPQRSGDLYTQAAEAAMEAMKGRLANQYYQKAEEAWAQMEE
# T41 sequence (Q8TDX7 whole entry): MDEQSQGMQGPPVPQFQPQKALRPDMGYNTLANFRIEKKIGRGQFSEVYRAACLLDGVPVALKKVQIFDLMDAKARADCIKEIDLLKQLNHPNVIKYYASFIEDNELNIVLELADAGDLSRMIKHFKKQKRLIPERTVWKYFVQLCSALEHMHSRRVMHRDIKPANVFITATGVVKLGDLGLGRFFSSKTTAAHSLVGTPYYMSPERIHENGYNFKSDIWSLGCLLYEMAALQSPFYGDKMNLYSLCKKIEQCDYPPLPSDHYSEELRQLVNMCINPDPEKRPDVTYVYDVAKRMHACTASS
# T20 sequence (P54764 20-986): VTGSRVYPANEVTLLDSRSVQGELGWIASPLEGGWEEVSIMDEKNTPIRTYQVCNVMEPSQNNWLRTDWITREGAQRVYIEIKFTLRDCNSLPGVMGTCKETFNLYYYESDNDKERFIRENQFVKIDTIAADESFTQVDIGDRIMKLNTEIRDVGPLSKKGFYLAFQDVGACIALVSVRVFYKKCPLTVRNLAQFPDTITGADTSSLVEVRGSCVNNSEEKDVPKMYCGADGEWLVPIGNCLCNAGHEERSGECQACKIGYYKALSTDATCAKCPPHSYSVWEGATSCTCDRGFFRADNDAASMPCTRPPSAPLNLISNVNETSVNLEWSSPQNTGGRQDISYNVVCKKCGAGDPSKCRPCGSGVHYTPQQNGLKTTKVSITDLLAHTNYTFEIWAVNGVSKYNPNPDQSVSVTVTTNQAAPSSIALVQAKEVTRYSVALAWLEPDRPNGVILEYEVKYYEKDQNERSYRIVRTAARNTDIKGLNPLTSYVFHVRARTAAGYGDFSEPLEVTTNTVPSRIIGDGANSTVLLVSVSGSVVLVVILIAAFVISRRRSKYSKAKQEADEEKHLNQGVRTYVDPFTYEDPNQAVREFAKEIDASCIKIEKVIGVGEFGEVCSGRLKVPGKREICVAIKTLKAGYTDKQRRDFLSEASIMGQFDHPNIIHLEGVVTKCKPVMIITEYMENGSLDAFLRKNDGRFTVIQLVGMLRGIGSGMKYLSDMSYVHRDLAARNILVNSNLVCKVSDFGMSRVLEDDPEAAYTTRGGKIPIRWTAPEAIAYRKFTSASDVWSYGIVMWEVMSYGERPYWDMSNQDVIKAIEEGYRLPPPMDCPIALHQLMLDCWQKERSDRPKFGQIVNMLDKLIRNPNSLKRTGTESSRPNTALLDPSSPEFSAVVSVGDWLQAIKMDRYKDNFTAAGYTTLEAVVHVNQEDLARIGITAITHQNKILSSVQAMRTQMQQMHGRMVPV
# T15 sequence (Q15349 whole entry): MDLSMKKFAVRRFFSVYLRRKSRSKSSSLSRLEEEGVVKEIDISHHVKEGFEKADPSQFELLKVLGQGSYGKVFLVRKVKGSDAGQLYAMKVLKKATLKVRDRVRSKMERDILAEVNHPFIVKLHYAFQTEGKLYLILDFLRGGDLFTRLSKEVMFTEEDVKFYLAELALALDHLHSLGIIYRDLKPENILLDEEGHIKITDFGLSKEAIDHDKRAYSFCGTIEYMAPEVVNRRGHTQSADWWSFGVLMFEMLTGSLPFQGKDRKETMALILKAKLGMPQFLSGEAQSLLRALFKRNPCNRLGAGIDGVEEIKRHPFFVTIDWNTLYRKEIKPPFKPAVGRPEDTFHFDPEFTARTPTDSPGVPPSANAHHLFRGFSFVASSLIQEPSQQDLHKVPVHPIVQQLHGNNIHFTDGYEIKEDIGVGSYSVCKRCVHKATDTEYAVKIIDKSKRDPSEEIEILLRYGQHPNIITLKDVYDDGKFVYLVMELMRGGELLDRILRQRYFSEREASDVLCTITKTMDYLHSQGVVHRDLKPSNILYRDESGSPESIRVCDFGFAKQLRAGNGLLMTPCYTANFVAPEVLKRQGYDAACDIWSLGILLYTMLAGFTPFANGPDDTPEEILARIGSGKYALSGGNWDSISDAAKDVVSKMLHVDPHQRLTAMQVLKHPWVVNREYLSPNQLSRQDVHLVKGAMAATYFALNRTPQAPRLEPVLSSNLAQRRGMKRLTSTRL
# T19 sequence (O43293 whole entry): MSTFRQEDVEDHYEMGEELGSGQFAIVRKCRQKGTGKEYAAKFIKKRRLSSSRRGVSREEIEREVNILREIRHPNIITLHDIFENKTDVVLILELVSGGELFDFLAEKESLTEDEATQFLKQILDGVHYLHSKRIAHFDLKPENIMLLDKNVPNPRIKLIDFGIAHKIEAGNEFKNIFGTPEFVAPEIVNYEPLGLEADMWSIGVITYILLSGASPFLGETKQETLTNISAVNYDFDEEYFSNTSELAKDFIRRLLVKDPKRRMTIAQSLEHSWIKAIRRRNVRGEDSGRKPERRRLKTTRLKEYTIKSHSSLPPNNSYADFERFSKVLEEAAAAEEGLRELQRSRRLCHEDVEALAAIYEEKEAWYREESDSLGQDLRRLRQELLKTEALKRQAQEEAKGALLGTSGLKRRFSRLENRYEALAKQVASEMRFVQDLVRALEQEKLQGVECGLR
# T16 sequence (Q13557 whole entry): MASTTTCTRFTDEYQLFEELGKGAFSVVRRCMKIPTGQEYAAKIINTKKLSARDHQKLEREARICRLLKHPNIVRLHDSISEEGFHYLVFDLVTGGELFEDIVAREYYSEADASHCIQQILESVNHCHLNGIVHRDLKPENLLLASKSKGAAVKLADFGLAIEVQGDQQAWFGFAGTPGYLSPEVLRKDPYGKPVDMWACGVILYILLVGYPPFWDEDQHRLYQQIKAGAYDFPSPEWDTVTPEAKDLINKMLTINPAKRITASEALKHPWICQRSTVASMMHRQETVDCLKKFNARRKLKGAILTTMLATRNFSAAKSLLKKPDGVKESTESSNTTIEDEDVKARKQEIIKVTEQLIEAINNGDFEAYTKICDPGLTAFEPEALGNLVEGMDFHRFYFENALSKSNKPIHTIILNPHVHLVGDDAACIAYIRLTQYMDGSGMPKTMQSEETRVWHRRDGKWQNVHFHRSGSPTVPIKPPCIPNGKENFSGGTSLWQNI
smiles,measurement,setting,value
COc1cc2oc(-c3ccc(O)c(O)c3)cc(=O)c2c(O)c1OC [Cirsiliol],activity at 10 µM,LKB1(h),96%
same,activity at 10 µM,CDK7/cyclinH(h),92%
same,activity at 10 µM,CK1γ1(h),103%
same,activity at 10 µM,FGFR2(h),110%
same,activity at 10 µM,Flt4(h),87%
same,activity at 10 µM,ARK5(h),97%
same,activity at 10 µM,EGFR(L858R)(h),107%
same,activity at 10 µM,MKK4(m),101%
same,activity at 10 µM,CK1γ3(h),104%
same,activity at 10 µM,CSK(h),100%
same,activity at 10 µM,DCAMKL3(h),109%
same,activity at 10 µM,FGFR4(h),87%
same,activity at 10 µM,CK1γ2(h),108%
same,activity at 10 µM,DDR2(h),106%
COc1ccc(CCc2cc(OC)c(OC)c(OC)c2)cc1O [Erianin],activity at 0.1 µM,Rsk3(h),108%
same,activity at 0.1 µM,CaMKIIδ(h),103%
same,activity at 0.1 µM,EphA1(h),101%
same,activity at 0.1 µM,CDK5/p25(h),102%
same,activity at 0.1 µM,ZIPK(h),111%
same,activity at 0.1 µM,EphA4(h),93%
same,activity at 0.1 µM,Fgr(h),91%
same,activity at 0.1 µM,Wee1(h),111%
same,activity at 0.1 µM,BTK(h),104%
same,activity at 0.1 µM,Rsk1(h),90%
same,activity at 0.1 µM,Ros(h),103%
same,activity at 0.1 µM,KDR(h),96%
same,activity at 0.1 µM,MEK2(h),83%
same,activity at 0.1 µM,eEF-2K(h),91%
same,activity at 0.1 µM,Rsk2(h),106%
same,activity at 0.1 µM,TYK2(h),100%
C=C1C(=O)[C@]23[C@H](O)[C@H]1CC[C@H]2[C@@]12CO[C@]3(O)[C@@H](O)[C@@H]1C(C)(C)CC[C@@H]2O [Oridonin],activity at 10 µM,PAK5(h),98%
same,activity at 10 µM,MAPKAP-K2(h),85%
same,activity at 10 µM,NEK3(h),64%
same,activity at 10 µM,MST2(h),54%
same,activity at 10 µM,PAK6(h),104%
same,activity at 10 µM,NEK1(h),77%
same,activity at 10 µM,DMPK(h),104%
same,activity at 10 µM,STK25(h),105%
same,activity at 10 µM,ATR/ATRIP(h),76%
same,activity at 10 µM,TAO1(h),64%
same,activity at 10 µM,NEK7(h),101%
same,activity at 10 µM,CDK18/cyclinY(h),65%
